Assay results reported in patent US20220194960A1, “WEE1 INHIBITOR AND PREPARATION AND USE THEREOF” (SHOUYAO HOLDINGS (BEIJING) CO., LTD., priority 2019, published 2022).
pIC50: −log10 of the molar value. Where two headings read alike, the source gives them in different places.

How the values were obtained:
[1] = Animal pharmacokinetic studies in rats; format: in vivo; conditions: male rats, 5 mg/kg single intragastric administration, plasma
Method: 3. Animal Pharmacokinetic Studies of Compounds:
Animal pharmacokinetic experiments were conducted with 3 healthy adult male rats from Beijing Vital River Laboratory Animal Technology Co., Ltd. The compound was suspended in a 20% solution of sulfobutyl ether-β-cyclodextrin (W/W/V) at a concentration of 1 mg/mL, The rats were subjected to 5 mg/kg suspension of the compound by single intragastric administration with a dosing volume of 5 mL/kg. Animals were fasted overnight prior to the experiment from 10 h before dosing to 4 h alter dosing. Blood was collected 0.25, 0.5, 1, 2, 4, 6, 8 and 24 h after administration. Animals were lightly anesthetized with isoflurane, and approximately 0.4 ml, of whole blood was collected from the orbital venous plexus with a glass blood collection tube, placed in a heparin anticoagulant tube, centrifuged at 4200 rpm for 5 min at 4° C., plasma transferred to the centrifuge tube, and stored at −80° C. until analysis. Test compounds extracted from rat plasma using acetonitrile protein precipitation and internal standard (Warfarin or Propranolol) were used for Plasma sample analysis, and the extracts were analyzed by LC/MS/MS. The measured plasma concentration-time data for individual animals were analyzed using non-compartmental model of WinNonlin (version 5.2.1; Pharsight) software to obtain the following pharmacokinetic parameters: maximum (peak) plasma drug concentration Cmax; a peak time Tmax; half-life T1/2 and the area under the plasma concentration-time curve front time 0 extrapolated to infinite time AUC0-inf.

WEE1 kinase = target: T1, WEE1 kinase (Homo sapiens, UniProt P30291); experiment: WEE1 kinase binding assay (LanthaScreen EU); conditions: WEE1 kinase 20 nM, Kinase Tracer 178 100 nM, 23° C. for 60 min, read-out: WEEI (IC50)
T1 construct: purchased Carna bioscience
Method: 1. Assay for WEE1 Kinase Inhibitory Activity (IC50) on Compounds
The WEE1 kinase binding assay was established and optimized with LanthaScreen EU for the determination of the activity of compounds. 10 mM compounds were subjected to ten-fold gradient dilution in 100% DMSO (6 concentrations in total), 5 μL of diluent from each concentration was added to 45 μL of reaction buffer (50 mM HEPES (4-hydroxyethylpiperazine ethanesulfonic acid), pH 7.5, 10 mM MgCl2 (magnesium chloride), 1 mM EGTA (ethylene glycol diethyl ether diamine tetraacetic acid), 0.01% Brij-35 (polyoxyethylene lauryl ether)) for blending. On this basis, 2 μL diluent from each concentration was added to 48 μL of reaction buffer for blending as a 4*compound (final concentrations of 1000, 100, 10, 1, 0.1, 0 nM) for later use. Reaction buffer was used to formulate 4*WEE1 kinase (purchased from Carna bioscience, a final concentration of 20 nM), 4*LanthaScreen EU-anti-GST Antibody (purchased from Invitrogen, PV5594, a fuel concentration of 2 nM), and 4*Kinase Tracer 178 (purchased from Invitrogen, PV5593, a final concentration of 100 nM). 2.5 μL of 4*compound was added to a 384-well plate (OptiPlate-384, purchased from PerkinElmer), followed by adding 2.5 μL of 4*WEE1 kinase, standing for 5 min at room temperature. Then 2.5 μL of 4*LanthaScreen EU-anti-GST Antibody was added followed by 2.5 μL of 4*Kinase Tracer 178. The reaction was started by centrifugation (a total reaction volume of 10 μL). The 384-well plate was wrapped with tin foil paper and placed in an incubator at 23° C. for 60 min. Fluorescence values (excitation at 320 nm, detecting emitted light at 665 nm and 615 nm, and a ratio of the two as enzyme activity) were read on Envision (purchased from PerkinElmer). The enzyme activity of each compound was measured at 6 concentrations, and the IC50 value of the compound was calculated using GraFit6.0 software (Erithacus Software).
The aforementioned “*” refers to multiplying, representing multiples.

[2] = system: Human non-small cell lung cancer cells NCI-H1299; experiment: NCI-H1299 cell proliferation inhibition (CellTiter-Glo); format: cell-based; conditions: Homo sapiens, 72 h, cultured 3 days, table head NCI-H1975, method NCI-H1299
Method: 2. Determination of Cell Proliferation Activity of Compounds:
NCI-H1299 cell proliferation inhibition screening method was established using CellTiter-fib detection reagent from Promega.
Human non-small cell lung cancer cells NCI-H1299 were cultured in 25 cm^2 or 75 cm^2 plastic tissue culture flasks (Corning) filled with DMEM (Gibco) medium supplemented with 10% fetal bovine serum (Hyclone) under 37° C., 95% air, and 5% CO2, and subcultured 2-3 times a week.
Cells were seeded at 1000 cells/well in a 96-well cell culture plate (Corning), 195 μL/well, and cultured under 37° C., 95% air, and 5% CO2. The next day test compound was added: 10 mM compounds (dissolved in DMSO) were subjected to 3-fold gradient dilution in DMSO, 2 μL of diluent from each concentration was added to 48 μL of serum-fret medium, and finally 5 μL of the diluted compound was added to the plate seeded with cells. The final concentration of DMSO in the cell culture was 0.1% and the foul concentration of the test compound was 0.3 nM-10 μM. The cells were cultured at 37° C. for 3 days.

T1 sequence (P30291 whole entry): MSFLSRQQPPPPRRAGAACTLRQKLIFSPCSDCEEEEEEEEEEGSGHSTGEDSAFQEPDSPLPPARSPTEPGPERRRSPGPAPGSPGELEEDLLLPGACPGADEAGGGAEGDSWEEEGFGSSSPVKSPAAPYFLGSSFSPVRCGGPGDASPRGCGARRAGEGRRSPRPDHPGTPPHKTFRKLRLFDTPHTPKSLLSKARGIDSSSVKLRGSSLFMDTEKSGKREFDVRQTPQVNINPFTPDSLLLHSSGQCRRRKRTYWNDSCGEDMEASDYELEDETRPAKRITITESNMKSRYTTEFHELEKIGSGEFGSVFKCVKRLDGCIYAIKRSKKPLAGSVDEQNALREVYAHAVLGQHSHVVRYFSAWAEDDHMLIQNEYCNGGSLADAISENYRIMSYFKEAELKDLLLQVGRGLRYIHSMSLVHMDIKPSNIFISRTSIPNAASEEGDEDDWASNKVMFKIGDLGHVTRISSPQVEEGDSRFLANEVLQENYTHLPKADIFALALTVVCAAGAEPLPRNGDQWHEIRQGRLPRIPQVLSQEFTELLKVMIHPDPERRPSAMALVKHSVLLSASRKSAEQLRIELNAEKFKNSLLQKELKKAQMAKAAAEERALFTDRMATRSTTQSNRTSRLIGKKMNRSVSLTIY

Row | Structure (SMILES) | half-life ([1]; rat, po) | AUC(0-inf) ([1]; rat, po, read-out: AUC0-inf) | Cmax ([1]; rat, po, read-out: Cmax) | Tmax ([1]; rat, po, read-out: Tmax) | pIC50 (WEE1 kinase) | pIC50 [2] | further results
1 | CN1CCN(C2CCN(c3ccc(Nc4ncc5cc(C6CC6)n(-c6cccc(C(C)(C)O)n6)c5n4)cc3)CC2)CC1 [Example 56, 2-(6-(2-((4-(4-(4-methylpiperazin-1-yl)piperidin-1-yl)phenyl)amino)-6-cyclopropyl-7H-pyrrolo[2,3-d]pyrimidin-7-yl)pyridin-2-yl)propan-2-ol] | 7.6 h | 1420 ng·h/mL | 116 ng/mL | 4 h | – | – | –
2 | CN1CCN(c2ccc(Nc3ncc4c(F)c(C5CC5)n(-c5cccc(C(C)(C)O)n5)c4n3)cc2)CC1 [Example 57, 2-(6-(2-((4-(4-methylpiperazin-1-yl)phenyl)amino)-5-fluoro-6-cyclopropyl-7H-pyrrolo[2,3-d]pyrimidin-7-yl)pyridin-2-yl)propan-2-ol] | 11.2 h | 1080 ng·h/mL | 68 ng/mL | 2.3 h | – | – | –
3 | CN1CCN(C2CCN(c3ccc(Nc4ncc5c(F)c(C6CC6)n(-c6cccc(C(C)(C)O)n6)c5n4)cc3)CC2)CC1 [Example 58, 2-(6-(2-((4-(4-(4-methylpiperazin-1-yl)piperidin-1-yl)phenyl)amino)-5-fluoro-6-cyclopropyl-7H-pyrrolo[2,3-d]pyrimidin-7-yl)pyridin-2-yl)propan-2-ol] | – | – | – | – | – | – | AUC(0-inf) [1]: 1751 ng·h/mL; Cmax [1]: 83 ng/mL; T1/2 [1]: 10.9 h; Tmax [1]: 6.0 h
4 | CN1CCN(C2CCN(c3ccc(Nc4ncc5cc(C6CC6)n(-c6cccc(C(C)(C)O)n6)c5n4)cc3F)CC2)CC1 [Example 77, 2-(6-(2-((3-fluoro-4 (4-(4-methylpiperazin-1-yl)piperidin-1-yl)phenyl)amino)-6-cyclopropyl-7H-pyrrolo[2,3-d]pyrimidin-7-yl)pyridin-2-yl)propan-2-ol] | 13.6 h | 2340 ng·h/mL | 98 ng/mL | 5.33 h | – | – | –
5 | CCCc1cc2cnc(Nc3ccc(N4CCC5(CCN(C)CC5)CC4)cc3)nc2n1-c1cccc(C(C)(C)O)n1 [Example 124, 2-(6-(6-propyl-2-((4-(9-methyl-3,9-diazaspiro[5.5]undecan-3-yl)phenyl)amino)-7H-pyrrolo[2,3-d]pyrimidin-7-yl)pyridin-2-yl)propan-2-ol] | – | – | – | – | 8.99 | – | AUC(0-inf) [1]: 4066 ng·h/mL; Cmax [1]: 163 ng/mL; T1/2 [1]: 19.2 h; Tmax [1]: 4.8 h
6 | Cc1cc2cnc(Nc3ccc(N4CCC(N5CCN(C)CC5)CC4)cc3)nc2n1-c1cccc(C(C)(C)O)n1 [Example 148, 2-(6-(6-methyl-2-((4-(4-(4-methylpiperazin-1-yl)piperidin-1-yl)phenyl)amino)-7H-pyrrolo[2,3-d]pyrimidin-7-yl)pyridin-2-yl)propan-2-ol] | 9.2 h | 1100 ng·h/mL | 64 ng/mL | 5.4 h | – | – | –
7 | Cc1cc2cnc(Nc3ccc(N4CCN(CCN(C)C)CC4)cc3)nc2n1-c1cccc(N=S(C)(C)=O)n1 [Example 151, ((6-(2-((4-(4-(2-(dimethylamino)ethyl)piperazin-1-yl)phenyl)amino)-6-methyl-7H-pyrrolo[2,3-d]pyrimidin-7-yl)pyridin-2-yl)imino)dimethyl-λ^6-sulfanone] | – | – | – | – | 9.22 | 7.18 | –
8 | CCc1cc2cnc(Nc3ccc(N4CCN(C)CC4)cc3)nc2n1-c1cccc(N=S(C)(C)=O)n1 [Example 152] | – | – | – | – | 9.70 | 7.64 | –
9 | CCc1cc2cnc(Nc3ccc(N4CCC(N5CCN(C)CC5)CC4)cc3)nc2n1-c1cccc(N=S(C)(C)=O)n1 [Example 154, ((6-(6-ethyl-2-((4 (4-(4-methylpiperazin-1-yl)piperidin-1-yl)phenyl)amino)-7H-pyrrolo[2,3-d]pyrimidin-7-yl)pyridin-2-yl)imino)dimethyl-λ^6-sulfanone] | – | – | – | – | 9.28 | 7.16 | –
10 | CCc1cc2cnc(Nc3ccc(N4CCN(CCN(C)C)CC4)cc3)nc2n1-c1cccc(N=S(C)(C)=O)n1 [Example 155, ((6-(2-((4 (4-(2-(dimethylamino)ethyl)piperazin-1-yl)phenyl)amino)-6-ethyl-7H-pyrrolo[2,3-d]pyrimidin-7-yl)pyridin-2-yl)imino)dimethyl-λ^6-sulfanone] | – | – | – | – | 8.99 | 7.05 | –
